Experimental data taken from US9011589B2, “Magenta dyes and their preparation methods and applications” (Dalian University of Technology, priority 2012, dated 2015).

Columns and labels:
Assay type in all cases: physicochemical
[1] = Evaluation of water solubility of the dye; conditions: solubility of the dye in water
Text: (D) Evaluation of Water Solubility of the Dye (g/100 g Water)

[2] = Gas (ozone) resistance of the printed images; conditions: grade of color difference ΔE; 40 ppm ozone, 60% RH, 24° C., 6 h
Text: Prepare the ink composition according to the formula described in Table 1 containing the products obtained in the above embodiment as the magenta colorant, and filter the ink composition with a […] membrane filter to obtain the aqueous magenta ink composition of the present invention. Add triethanolamine to adjust the ink composition pH to 8˜10 and add deionized water to make the total volume to reach 100 parts by weight. Use an ink-jet printer (Epson 270 manufactured by Epson Company), glossy photo paper (Epson) and the above described ink compositions for ink-jet printing. Place the printed images in the Ozone Weathering Test Chamber (manufactured by China Surui Company) at 40 ppm ozone, 60% RH and 24° C. for 6 h. Calculate the color difference (ΔE) before and after the test in the same manner as described in (1) above and evaluate it in 3 grades based on the following benchmark: [table]

[3] = Evaluation of long-term stability of the dye in aqueous solvent systems; parameters: key: ∘: No precipitation; Δ: Slight precipitation; x: Notable; conditions: 20 parts dye, 70 parts water, 10 parts ethylene glycol; 50° C. 7 d, then 0° C. 7 d; precipitation on filtering
Description: Heat and dissolve the system consisting of 20 parts of dyes, 70 parts of water and 10 parts of ethylene glycol; after the solution cools down, store it airtight at a constant temperature of 50° C. for 7 d; cool it to 0° C. and store it at the same temperature for 7 d; filter the solution and evaluate it in 3 grades based on the following benchmark: […]

[4] = Light resistance test of printed images with xenon lamp; conditions: grade of color difference ΔE; ink with 6 parts dye on glossy photo paper; xenon lamp 0.36 W/m^2, 60% RH, 24° C., 50 h
Text: Prepare the ink composition according to the formula described in Table 1 containing the products obtained in the above embodiment as the magenta colorant, and filter the ink composition with a […] membrane filter to obtain the aqueous magenta ink composition of the present invention. Add triethanolamine to adjust the ink composition pH to 8˜10 and add deionized water to make the total volume to reach 100 parts by weight.
Use an ink-jet printer (Epson 270 manufactured by Epson Company), glossy photo paper (Epson) and the above described ink compositions for ink-jet printing.
Irradiate the printed glossy photo paper manufactured by Canon and Epson with Xenon-lamp Weathering Test Chamber ZG-P (manufactured by China Surui Company) at 60% RH and 24° C. with illuminance of 0.36 W/m^2 for 50 h, and check the color difference (ΔE) before and after the test. The color difference (ΔE) is calculated from the differences of values of L*, a*, b* before and after the test in the above described color measurement system (Unterlab) by the followings formula: ΔE=((difference of L*)^2+(difference of a*)^2+(difference of b*)^2)^1/2.
Three grades will be divided for the evaluation based on the following benchmark: […]

SMILES	Water solubility of the dye [1]	Ozone resistance of printed images [2]	Long-term stability of the dye in aqueous solvent systems [3]	UV resistance of printed images [4]
O=S(=O)([O-])c1cc(Nc2nc(Nc3ccc(/C=C/c4ccc(Nc5nc(Nc6cc(S(=O)(=O)[O-])cc7cc(S(=O)(=O)[O-])c(N=Nc8ccccc8)c(O)c67)nc(N6CCOCC6)n5)cc4S(=O)(=O)[O-])c(S(=O)(=O)[O-])c3)nc(N3CCOCC3)n2)c2c(O)c(N=Nc3ccccc3)c(S(=O)(=O)[O-])cc2c1.[Na+].[Na+].[Na+].[Na+].[Na+].[Na+] [C.I. direct red 227, reference compound]	x (The solubility of the dye in water <15)	x (ΔE > 20)	Δ	x (ΔE > 20)
O=C(Nc1cc(S(=O)(=O)[O-])cc2cc(S(=O)(=O)[O-])c(N=Nc3ccc4cc(S(=O)(=O)CCOS(=O)(=O)[O-])ccc4c3S(=O)(=O)[O-])c(O)c12)c1ccccc1.[Na+].[Na+].[Na+].[Na+] [C.I. reactive red 180, reference compound]	–	x (ΔE > 20)	Δ	x (ΔE > 20)
O=C([O-])CCCS(=O)(=O)c1ccc(S(=O)(=O)[O-])c(Nc2cc(S(=O)(=O)[O-])c3[nH]c(=O)c(C(=O)[O-])c4c3c2C(=O)c2ccccc2-4)c1.[Na+].[Na+].[Na+].[Na+] [Dm1]	∘ (The solubility of the dye in water >30)	∘ (ΔE < 10)	∘	∘ (ΔE < 10)
O=C([O-])CCCS(=O)(=O)c1ccc(S(=O)(=O)[O-])c(Nc2cc(S(=O)(=O)[O-])c3[nH]c(=O)c(C(=O)OCc4ccccc4)c4c3c2C(=O)c2ccccc2-4)c1.[Na+].[Na+].[Na+] [Dm3]	∘ (The solubility of the dye in water >30)	∘ (ΔE < 10)	∘	∘ (ΔE < 10)
Cc1ccc(COC(=O)c2c3c4c(c(Nc5cc(S(=O)(=O)CCCC(=O)[O-])ccc5S(=O)(=O)[O-])cc(S(=O)(=O)[O-])c4[nH]c2=O)C(=O)c2ccccc2-3)cc1.[Na+].[Na+].[Na+] [Dm5]	∘ (The solubility of the dye in water >30)	∘ (ΔE < 10)	∘	∘ (ΔE < 10)
O=C([O-])CCCS(=O)(=O)c1ccc(S(=O)(=O)[O-])c(Nc2cc(S(=O)(=O)[O-])c3[nH]c(=O)c(C(=O)OCc4cccc([N+](=O)[O-])c4)c4c3c2C(=O)c2ccccc2-4)c1.[Na+].[Na+].[Na+] [Dm7]	∘ (The solubility of the dye in water >30)	∘ (ΔE < 10)	∘	∘ (ΔE < 10)
O=C([O-])CCCS(=O)(=O)c1cc(S(=O)(=O)[O-])c(Nc2cc(S(=O)(=O)[O-])c3[nH]c(=O)c(C(=O)[O-])c4c3c2C(=O)c2ccccc2-4)c(S(=O)(=O)[O-])c1.[Na+].[Na+].[Na+].[Na+].[Na+] [Dp2]	∘ (The solubility of the dye in water >30)	∘ (ΔE < 10)	∘	∘ (ΔE < 10)
O=C([O-])CCCS(=O)(=O)c1cc(S(=O)(=O)[O-])c(Nc2cc(S(=O)(=O)[O-])c3[nH]c(=O)c(C(=O)OCc4ccccc4)c4c3c2C(=O)c2ccccc2-4)c(S(=O)(=O)[O-])c1.[Na+].[Na+].[Na+].[Na+] [Dp4]	∘ (The solubility of the dye in water >30)	∘ (ΔE < 10)	∘	∘ (ΔE < 10)
O=C([O-])CCCS(=O)(=O)c1cc(S(=O)(=O)[O-])c(Nc2cc(S(=O)(=O)[O-])c3[nH]c(=O)c(C(=O)OCc4cccc(Cl)c4)c4c3c2C(=O)c2ccccc2-4)c(S(=O)(=O)[O-])c1.[Na+].[Na+].[Na+].[Na+] [Dp10]	∘ (The solubility of the dye in water >30)	∘ (ΔE < 10)	∘	∘ (ΔE < 10)
O=C([O-])CCCS(=O)(=O)c1cc(S(=O)(=O)[O-])c(Nc2cc(S(=O)(=O)[O-])c3[nH]c(=O)c(C(=O)OCc4cccc(S(=O)(=O)[O-])c4)c4c3c2C(=O)c2ccccc2-4)c(S(=O)(=O)[O-])c1.[Na+].[Na+].[Na+].[Na+].[Na+] [Dp14]	∘ (The solubility of the dye in water >30)	∘ (ΔE < 10)	∘	∘ (ΔE < 10)
O=C([O-])CCCS(=O)(=O)c1cc(S(=O)(=O)[O-])c(Nc2cc(S(=O)(=O)[O-])c3[nH]c(=O)c(C(=O)OCc4cccc5ccccc45)c4c3c2C(=O)c2ccccc2-4)c(S(=O)(=O)[O-])c1.[Na+].[Na+].[Na+].[Na+] [Dp17]	Δ (The solubility of the dye in water >15-20)	∘ (ΔE < 10)	∘	∘ (ΔE < 10)
Cn1c(=O)c(C(=O)OCc2cccc3ccccc23)c2c3c(c(Nc4ccc(S(=O)(=O)[O-])cc4S(=O)(=O)[O-])ccc31)C(=O)c1ccccc1-2.[Na+].[Na+] [Dye2, reference compound]	Δ (The solubility of the dye in water >15-20)	∘ (ΔE < 10)	Δ	∘ (ΔE < 10)
